We go through seven compounds from PubChem BioAssay (NCI).

Test systems include HCC-2998 colon; HL-60(TB) leukemia; M14 melanoma; NCI-H23 lung; NCI-H460 lung; OVCAR-3 ovarian; RPMI-8226 leukemia; SF-539 CNS; SK-MEL-2 melanoma; SK-MEL-28 melanoma; SN12C renal; SNB-75 CNS.
What all share (test): inhibition of tumour cell growth, NCI panel, 48 h

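Cells were grown in 96-well plates and exposed to each compound for 48 hours at five concentrations; endpoints were interpolated linearly between bracketing concentrations, or set to the highest concentration if not reached. TGI denotes the concentration required for complete inhibition of growth.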

Consider `OC1(c2ccccc2)CC2CCC(C1)N2CCCC(O)(c1ccccc1)c1ccccc1` (centres undefined), for which the TGI with HCC-2998 colon is 6.25 µM; in the assay on HL-60(TB) leukemia it was > 100 µM; in the assay on M14 melanoma, 30.8 µM; in the assay with NCI-H23 lung, 25.7 µM; with NCI-H460 lung, 5.13 µM; with OVCAR-3 ovarian it was 30 µM. Besides, the TGI in the assay with RPMI-8226 leukemia was 6.4 µM; with SF-539 CNS, 16.8 µM; in the assay on SK-MEL-2 melanoma it was 37.6 µM; in the assay on SK-MEL-28 melanoma, 32.9 µM; in the assay on SN12C renal, 39.1 µM; in the assay with SNB-75 CNS it was 23.8 µM.
Take `C=C1C(=O)OC2C1CCC(=C)C1CC(O)C(=C)C12` (centres undefined): the TGI came out at 27.9 µM in the assay with HCC-2998 colon; 5.79 µM with HL-60(TB) leukemia; 41 µM with M14 melanoma; 34 µM in the assay with NCI-H23 lung; 36.6 µM in the assay on NCI-H460 lung; 27.9 µM in the assay on OVCAR-3 ovarian. Further, the TGI stood at 23 µM with RPMI-8226 leukemia; 35.2 µM with SF-539 CNS; 32.7 µM in the assay on SK-MEL-2 melanoma; 32 µM in the assay with SK-MEL-28 melanoma; 31.9 µM in the assay with SN12C renal; 37.3 µM with SNB-75 CNS.
On to `c1ccc(CN2CCC(=NN3CCCCC3)CC2)cc1`, for which the TGI was > 100 µM with HCC-2998 colon; 43.9 µM in the assay with HL-60(TB) leukemia; > 100 µM with M14 melanoma; > 100 µM with NCI-H23 lung; > 100 µM in the assay with NCI-H460 lung; > 100 µM in the assay on OVCAR-3 ovarian. Also, the TGI in the assay with RPMI-8226 leukemia was 66.3 µM; in the assay on SF-539 CNS, > 100 µM; with SK-MEL-2 melanoma, > 100 µM; in the assay with SK-MEL-28 melanoma, > 100 µM; with SN12C renal, > 100 µM; in the assay on SNB-75 CNS, > 100 µM.
For the compound `CC(C)OP(=O)(OC(C)C)C(=NCCO)NNc1ccc([N+](=O)[O-])cc1`, the TGI in the assay on HCC-2998 colon, in the assay with HL-60(TB) leukemia, in the assay with M14 melanoma, with NCI-H23 lung, in the assay with NCI-H460 lung and in the assay on OVCAR-3 ovarian was > 100 µM each time. Also, the TGI in the assay with RPMI-8226 leukemia, with SF-539 CNS, in the assay on SK-MEL-2 melanoma, in the assay with SK-MEL-28 melanoma, with SN12C renal and in the assay with SNB-75 CNS was > 100 µM each time.
In the case of `O=c1oc2cc(O)ccc2c2[nH]c3cc(O)ccc3c12`, the TGI with HCC-2998 colon was 57 µM; with HL-60(TB) leukemia it was > 100 µM; in the assay with M14 melanoma, > 100 µM; with NCI-H23 lung, 51.5 µM; with NCI-H460 lung, 96.4 µM; with OVCAR-3 ovarian it was 56.5 µM. Also, the TGI is > 100 µM with RPMI-8226 leukemia; 49.9 µM with SF-539 CNS; 50.2 µM in the assay on SK-MEL-2 melanoma; > 100 µM in the assay on SK-MEL-28 melanoma; > 100 µM in the assay on SN12C renal; 46.2 µM in the assay with SNB-75 CNS.
Consider `CCO/C(O)=C(/C(=N)N1CCOCC1)C(=O)Nc1cccc(C(F)(F)F)c1`, for which the TGI in the assay with HCC-2998 colon, with HL-60(TB) leukemia, with M14 melanoma, in the assay on NCI-H23 lung, in the assay on NCI-H460 lung and in the assay on OVCAR-3 ovarian was > 100 µM each time. The TGI in the assay on RPMI-8226 leukemia, with SF-539 CNS, with SK-MEL-2 melanoma, with SK-MEL-28 melanoma, with SN12C renal and with SNB-75 CNS was > 100 µM throughout.
In the case of `COc1ccccc1C1C2=C(COC2=O)Oc2cc3c(cc21)OCO3` (centres undefined), the TGI is > 37.6 µM with HCC-2998 colon; 11.6 µM with HL-60(TB) leukemia; > 33.4 µM with M14 melanoma; > 100 µM in the assay on NCI-H23 lung; > 100 µM in the assay with NCI-H460 lung; 16.7 µM with OVCAR-3 ovarian. The TGI in the assay on RPMI-8226 leukemia is > 59.2 µM; in the assay on SF-539 CNS it was 5.32 µM; in the assay with SK-MEL-2 melanoma it was 99.7 µM; in the assay with SK-MEL-28 melanoma, > 76 µM; in the assay with SN12C renal it was > 100 µM; in the assay on SNB-75 CNS it was 21.9 µM.
